These results are taken from US20220016271A1, “METHODS FOR TREATING CANCER” (The Brigham and Women`s Hospital, Inc., priority 2018, published 2022).

For test [1], the system named is A549 (p53 wild type). Format: cell-based. As to conditions: p53 mRNA 1 μg/mL; metformin 4 or 6 mg/mL (FIG. 60). As for the experimental part:
Experimental Methods. […] Then, the cell viabilities of these cells were measured by Alamar blue assay. […] The cells without receiving any treatments were labeled as the “Control”.

Test [2] has as its system p53-null H1299 liver metastases. Briefly: In vivo therapeutic efficacy in p53-null disseminated NSCLC model (liver metastases). More on the design: species or system athymic nude mice. As to conditions: mRNA 750 μg/kg IV; everolimus 5 mg/kg oral; five rounds. As for the experimental part: In vivo therapeutic efficacy in p53-null disseminated NSCLC model. To establish the experimental disseminated metastatic model, ˜1×10^6p53-null H1299 cells in 100 μl of PBS were injected via tail vein into female athymic nude mice. […] The first treatment was performed at Day 0. On Day 15, all the mice were sacrificed, and one liver was randomly selected from each group for H&E staining. The liver section from each group was divided into four regions for calculation of the metastasis numbers (FIG. 55).

Test [3] concerns p53-null H1299 cells. Put plainly: Western blot, IF, TEM and GFP-LC3B CLSM analysis of p53, apoptosis, mTOR and autophagy pathways. Format: cell-based, human. As for the experimental part:
(§1) Western blot assay. Cells or dissected tumors in each group were lysed in a lysis buffer (1 mM EDTA, 20 mM Tris-HCl pH 7.6, 140 mM NaCl, 1% aprotinin, 1% NP-40, 1 mM phenylmethylsulphonyl fluoride, and 1 mM sodium vanadate), and supplemented with protease inhibitor cocktail (Cell Signaling Technology). Protein concentration was detected by a bicinchoninic acid (BCA) Protein Assay Kit (Pierce). 25 μg of proteins were loaded on 6-12% precast gels (Invitrogen), and then transferred to Immobilon PVDF membranes (Bio-Rad, 162-0176 and 162-0177). The transferred membranes were blocked with 5% bovine serum albumin (BSA) in TBST (150 mM NaCl, 50 mM Tris-HCl at pH 7.4, and 0.1% Tween 20) for 1 hour at room temperature, and were further incubated with primary antibodies overnight at 4° C. The immunoreactive bands were detected with appropriate HRP-conjugated secondary antibodies. Band density was detected by enhanced chemiluminescence (ECL) detection system (Amersham/GE Healthcare).
Immunofluorescent staining and TEM detection. […]
(§2) Quantification of GFP-LC3B puncta. […] A confocal fluorescence microscope was used to observe the fluorescence of GFP-LC3B. To quantify the extent of autophagy, cells showing accumulation of GFP-LC3B in vacuoles or dots were counted. […]
On the technique in general: A western blot detects proteins with antibodies after separation by electrophoresis.

The test system of test [4] is p53-null H1299 cells. Put plainly: Cell viability by AlamarBlue assay. Format: cell-based, human. As for the experimental part:
(§3) Cell viability and transfection efficiency of EGFP-mRNA NPs. The p53-null Hep3B cells or H1299 cells were plated in 96-well plates at a density of 3×10^3 cells per well. […] Lip2k was used as a positive control for transfection efficiency comparison with the NPs. Cell viability was tested by AlamarBlue assay, which is a non-toxic assay that can continuously check real-time cell proliferation through a microplate reader (TECAN, Infinite M200 Pro). Absorbance was examined by a 96-well SpectraMax plate reader (Molecular Devices) at 545 nm and 590 nm. To measure the transection efficiency, cells were treated with EGFP-mRNA by NPs or Lip2k for 24 hours, detached with 2.5% EDTAtrypsin, and collected in PBS solution, followed by evaluating GFP expression using flow cytometry (BD Biosystems). The percentages of EGFP-positive cells were calculated and analyzed by Flowjo software.
(§4) Combination index (CI) calculation.
On the technique in general: Resazurin is reduced to fluorescent resorufin, in cell work by metabolically active cells.

Test [5] relates to p53-null Hep3B cells. Put plainly: Cell viability by AlamarBlue assay. Format: cell-based, human. As for the experimental part:
as §3, §4

The test system of test [6] is Hep3B-Luc orthotopic tumors. Put plainly: In vivo therapeutic efficacy in p53-null orthotopic HCC model (bioluminescence). More on the design: species or system athymic nude mice. The settings on record: mRNA 750 μg/kg IV; everolimus 5 mg/kg oral; every three days, 4 rounds. As for the experimental part: In vivo therapeutic efficacy in p53-null orthotopic HCC model. To establish the orthotopic HCC model, luciferase-expressing Hep3B (Hep3B-Luc) cells were used. Six-week-old female athymic nude mice were obtained from Zhejiang Medical Academy Animal Center. Animal studies were conducted following the protocol approved by the Institutional Animal Ethics Committee of Hangzhou Normal University. First, anterior abdominal exposure was made and a cotton swab with iodine volts was used to sterilize this area. A one-centimeter-long midline incision was made along the anterior abdominal wall below the xiphoid after anesthesia by isoflurane, and ˜5×10^6 p53-null Hep3B-Luc cells in 50 μl of PBS were injected into the left lobe of the livers of the athymic nude mice (30 in total). The injection depth was not deeper than 2 mm. The inner and outer layers of the abdominal cavity were sutured one by one after tumor cell inoculation. […] The first treatment was performed at Day 0. On Day 12, all the mice were sacrificed. Mice were monitored for tumor growth by bioluminescent in vivo imaging every 6 days (Day 0, 6, and 12). To do this, these mice were injected intraperitoneally with 150 mg/kg D-luciferin substrate (PerkinElmer, Catalog #122799) and imaged by an IVIS Lumina S5 (PerkinElmer) imaging system.

In test [7] the test system is p53-null Hep3B cells. Briefly: Western blot, IF, TEM and GFP-LC3B CLSM analysis of p53, cell cycle, apoptosis, mTOR and autophagy pathways. Format: cell-based, human. As for the experimental part:
as §1
Immunofluorescent staining and TEM detection. Cells or tumor tissues were fixed with 4% paraformaldehyde (Electron Microscopy Sciences) at room temperature for 15 min, followed by permeabilization in 0.2% Triton X-100-PBS for 10 min. Samples were further incubated with PBS blocking buffer (containing 2% BSA, 2% normal goat serum, and 0.2% gelatin) at room temperature for 30 min. Afterwards, the samples were incubated with primary antibody overnight at 4° C., washed with PBS, and incubated in goat anti-rat-Alexa Fluor 647 (Molecular Probes) in blocking buffer (1:1000 dilution) at room temperature for 60 min. Stained samples were washed with PBS, nuclei were stained using Hoechst 33342 (Molecular Probes-Invitrogen, H1399, 1:2000 dilution in PBS), and the samples were mounted on slides with Prolong Gold antifade mounting medium (Life Technologies). […]
as §2

Test [8] deals with H1299 cells. Put plainly: Apoptosis detection (Annexin V/PI, flow cytometry). Format: cell-based, human. The settings on record: AnnV/PI co-staining. As for the experimental part: (§5) Apoptosis and cell cycle detection in vitro. We used an FITC Annexin V/Propidium iodide (PI) apoptosis detection kit (BD Biosciences) to detect apoptosis. In brief, 1×10^6 cells were seeded into 6-well plates. After attachment overnight, cells were treated with p53-mRNA NPs for 24 hours before being mixed with 1 ml fresh medium and continuing to culture for another 24 h. All the attached cells together with the floating cells in the medium were harvested, washed with PBS twice, and dispersed in 1× binding buffer solution (ice-cold) at a concentration of 1×10^6 cells/ml. 5 μl of FITC Annexin V and 5 μl of PI were further mixed with 100 μl of the cell suspension. We then incubated the mixture at room temperature for 15 min in a dark environment and performed analysis using the FACS Calibur Flow Cytometer (BD Biosystems). Cells were incubated for 48 hours with empty NPs, naked p53-mRNA, or p53-mRNANPs washed in PBS and fixed with 70% ethanol overnight, then washed in PBS twice and incubated with PI for 30 minutes at 37° C.; cell-cycle fractions (percentage of cells with fractional DNA content in G1, S, and G2/M phases of the cycle) were estimated by flow cytometry and analyzed by Flowjo software.

For test [9], the system named is Hep3B cells. Briefly: Apoptosis detection (Annexin V/PI, flow cytometry). As to conditions: AnnV/PI co-staining. The class given is cell-based, human. As for the experimental part:
as §5
For orientation: A flow cytometer gives signals particle by particle.

For test [10], the system named is p53-null Hep3B tumor sections. Briefly: In vivo mechanisms (IF, IHC, TUNEL, WB of tumor sections). Further details: species or system athymic nude mice. As to conditions: mouse. As for the experimental part:
In vivo mechanisms underlying the p53-mRNA NP-mediated sensitization to everolimus. […] The mice were sacrificed at 12, 24, 48, or 60 hours after the last injection of p53-mRNANPs, and the tumors were harvested for sections. Mice bearing p53-null Hep3B liver xenografts and intravenously injected with PBS were used as controls and sacrificed at 60 hours after the last injection. The expression of p53 and C-CAS3 was monitored via IF detection. Moreover, tumor sections from both the PBS group and p53-mRNANP group (60 hours after the last injection) were analyzed by IHC. The expression of p53, tumor cell apoptosis markers (BAX, C-CAS3), and proliferation markers (Ki67 and PCNA) was further assessed.
Western blot assay. Cells or dissected tumors in each group were lysed in a lysis buffer (1 mM EDTA, 20 mM Tris-HCl pH 7.6, 140 mM NaCl, 1% aprotinin, 1% NP-40, 1 mM phenylmethylsulphonyl fluoride, and 1 mM sodium vanadate), and supplemented with protease inhibitor cocktail (Cell Signaling Technology). Protein concentration was detected by a bicinchoninic acid (BCA) Protein Assay Kit (Pierce). […] The immunoreactive bands were detected with appropriate HRP-conjugated secondary antibodies. Band density was detected by enhanced chemiluminescence (ECL) detection system (Amersham/GE Healthcare). […]

The subject of test [11] is p53-null Hep3B xenografts. Briefly: In vivo therapeutic efficacy in p53-null HCC xenograft tumor model. More on the design: species or system athymic nude mice. The settings on record: mRNA 750 μg/kg IV; everolimus 5 mg/kg oral; every three days, six treatments. As for the experimental part:
In vivo therapeutic efficacy in p53-null HCC xenograft tumor model. […] The day that first treatment was performed was designated as Day 0. […] The body weights of all the mice were also recorded over this period.
as §4

Where [12] appears, read: increasing everolimus concentrations.

Turning to `N.N.[Cl][Pt][Cl]` [cisplatin], the “cells dead / killed” value in test [1] is “less than 50%”.
Consider `CO[C@H]1C[C@@H]2CC[C@@H](C)[C@@](O)(O2)C(=O)C(=O)N2CCCC[C@H]2C(=O)O[C@H]([C@H](C)C[C@@H]2CC[C@@H](OCCO)[C@H](OC)C2)CC(=O)[C@H](C)/C=C(\C)[C@@H](O)[C@@H](OC)C(=O)[C@H](C)C[C@H](C)/C=C/C=C/C=C/1C` [everolimus, Everolimus], for which the “metastatic nodules in the liver” value in test [2] is “moderate effects”. The “autophagy activation (WB, autophagosomes by TEM, GFP-LC3B by CLSM)” value in test [3] and in test [7] was “activation of autophagy” throughout. Further, the “mTOR pathway targets (p-mTOR and p-p70S6K; WB)” value in [3] (setting [12]) and in test [7] (setting [12]) was “substantially blocked” throughout. In addition, the viability at 0.016 µM in [4] (Homo sapiens, NCI-H1299, mRNA 0.415 μg/ml, everolimus 16 nM) was more than 80%. Also, the cells still alive entry in test [4] (at 64 nM) and in [5] (at 64 nM) was “over 50%” in each case. In addition, the cell viability result in test [4] (setting [12]) and in [5] (setting [12]) was “no significant decrease in cell viability” in each case. Also, the viability at 0.032 µM in test [5] (Homo sapiens, Hep3B, mRNA 0.415 μg/ml, everolimus 32 nM) was approximately 70%. Moreover, in test [6], the “orthotopic tumor growth / burden (bioluminescence)” value is on record as “somewhat inhibited the growth of orthotopic tumors”. In [7] (increase of everolimus concentration), the “LC3B-2 and LC3B-2/actin ratio (WB)” value was “upregulation of LC3B-2 and higher LC3B-2/actin ratios”. The cell apoptosis entry in [8] and in test [9] was “moderate apoptotic cell death” in each case. The “autophagy in tumors (LC3B-2 relative to actin, BECN1; WB)” value in [10] is “induced autophagy”. In test [11], the tumor growth entry is listed as “moderate anti-tumor activity”.

The term viability denotes a read-out of living cells in per cent, often relative to untreated cells.
